Reference: paper PMC11079024, “Identification of a family of species-selective complex I inhibitors as potential anthelmintics” (Nature Communications, 2024)
“And” between values parts separate entries of the source, which are not always exact repeats. Equal values may be shown once. Read-outs that look alike come from different tables or passages of the source.

Legend:
[1] = system: adult H. polygyrus; format: cell-based, Heligmosomoides polygyrus; conditions: aerobic; for Worm viability score of individual worm, scale from 0 (dead) to 3 (motile): single worms; for Percent Worms Affected: affected = score equal to or lower than 1.5; for effect on adult H. polygyrus viability: 10 µM, 24-h exposure
Protocol: After either 24- or 72 h chemical treatment, worm viability was manually scored by an examiner using a scale from 0 (dead) to 3 (motile); DMSO was used as a negative control in both 24- and 72 h treatments. The percentage of affected worms (i.e., worms with a score equal to or lower than 1.5) in each biological replicate is shown; data are from two biological replicates. Within each boxplot, black horizontal lines denote group medians, boxes span from the 25th to the 75th percentile of each group’s distribution, and whiskers extend to the maximum and minimum values.
The eleven benzimidazole derivatives were tested at a concentration of 10 µM under aerobic conditions against L3 and adult H. polygyrus.
For the larval assay, mice feces were collected 2 weeks post-infection and eggs were isolated. The eggs were left on agar at room temperature in the dark for eight to 10 days to allow them to develop into L3. Next, 30–40 L3 were incubated (37 °C, 5% CO2) in the culture medium (RPMI 1640 medium + 1% pen./strep. + 5% amphotericin B) containing the derivatives in 96-well plate (Corning, USA) reaching a final volume of 250 µL for 24 h. For the adult drug screening assay, female NMRI mice were euthanized with CO2 and adult H. polygyrus were dissected out of the intestines. Subsequently, three worms were exposed to the culture medium (RPMI 1640 medium + 1% pen./strep. + 5% amphotericin B) with the derivatives (2 mL) in a 24-well plate (Corning, USA) for either 24 or 72 h. DMSO ( < 1%) served as a negative control in both assays. All conditions were tested in duplicates. Finally, 80 µL of hot water ( ~ 80 °C) for L3 and 500 µL of hot water (~80 °C) for adults were added to the wells to check for their viability under a microscope (Carl Zeiss, Germany). Larvae were categorized as being either alive or dead, depending on whether they moved or not. […] The whole experiment was performed two times i.e., two independent biological replicates for both life stages (L3s and adults) and exposure times (24 and 72 h).

[2] = system: L1 wild-type C. elegans; experiment: whole plant or invertebrate; conditions: Caenorhabditis elegans, 15 h, read-out: C. elegans KCN Survival Assay LC50
[3] = system: C. elegans complex IV (cytochrome C oxidase); experiment: In vitro complex IV activity assay, C. elegans mitochondria; format: biochemical, Caenorhabditis elegans; conditions: for % Activity Complex IV: 100 µM compound, relative to solvent control, mean (SEM); for Percent in vitro activity, Complex IV (single replicate Rep1-Rep4) / Percent in vitro activity, Complex IV (Mean): 100 μM of NPD compound, C. elegans mitochondria; for Percent in vitro activity, Complex IV (single replicate Rep1-Rep4): individual biological replicates; for Percent in vitro activity, Complex IV (Mean): mean of four biological replicates; for CIV Activity: 100 μM inhibitor, in vitro activity relative to solvent control, N2 C. elegans mitochondria
Outline: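 Cytochrome C oxidase activity read spectrophotometrically at 550 nm (30 s intervals, 15 min) as oxidation of freshly DTT-reduced CytC. Mitochondria (0.2 mg/mL) came from adult worms of six C. elegans strains grown at 20 °C. Rates were taken from initial linear phase and normalised to solvent-control wells.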

[4] = system: HEK293 cells
[5] = adult H. polygyrus, in vitro, 24 hours, per biological replicate
[6] = adult H. polygyrus, in vitro, 24 hours
[7] = adult H. polygyrus, in vitro, 72 hours, per biological replicate
[8] = adult H. polygyrus, in vitro, 72 hours
[9] = adult H. polygyrus, replicate 1, 24 hours after treatment
[10] = adult H. polygyrus, replicate 2, 24 hours after treatment
[11] = replicate 1, 24 hours after treatment, worms with score equal to or lower than 1.5
[12] = replicate 2, 24 hours after treatment, worms with score equal to or lower than 1.5
[13] = dose 0.4 µM, individual replicate (Rep)
[14] = dose 0.8 µM, individual replicate (Rep)
[15] = dose 3.1 µM, individual replicate (Rep)
[16] = dose 6.3 µM, individual replicate (Rep)
[17] = dose 12.5 µM, individual replicate (Rep)
[18] = dose 25 µM, individual replicate (Rep)
[19] = dose 50 µM, individual replicate (Rep)

SMILES	Percent Worms Affected (worms with a score equal to or lower than 1.5) [1, 5]	Worm viability score of individual worm, scale from 0 (dead) to 3 (motile) [1, 6]	Percent Worms Affected (worms with a score equal to or lower than 1.5) [1, 7]	Worm viability score of individual worm, scale from 0 (dead) to 3 (motile) [1, 8]	Percent Worms Affected [1, 9] [%]	Percent Worms Affected [1, 10] [%]	# of Worms Affected [1, 11]	# of Worms Affected [1, 12]	LC50 [2] [µM]	further results
Brc1ccc(Cn2cnc3ccccc32)cc1 [Compound 5542661]	17% and 0%	2.5 and 2	17% and 83%	1.5						
Cc1nc2ccccc2n1Cc1ccc(Br)cc1 [Compound 5567167]	33% and 17%	2.5 and 2 and 1.5	83% and 100%	1.5	33	17	2	1		
Cc1nc2ccccc2n1Cc1ccccc1Cl [Compound 6707368]	0% and 14%	2.5	29% and 100%	1.5	0	14	0	1		
Clc1ccc(Cn2cnc3ccccc32)c(Cl)c1 [Compound 6750659]	33% and 17%	1.5 and 2.5	33% and 100%	1.5	33	17	2	1		
Cc1ccccc1OCCCCn1cnc2ccccc21 [Compound 7732524]	67%	1.25 (4×) and 1	83% and 100%	0.5	100	67	6	4	6.4	effect on adult H. polygyrus viability [1]: potent effects; # of Worms Affected [1, 5]: 4 and 6
Clc1ccc(SCCCCn2cnc3ccccc32)cc1 [Compound 7925515]	50% and 100%	1.5	100%		100	50	6	4		effect on adult H. polygyrus viability [1]: potent effects
Clc1ccccc1OCCCCn1cnc2ccccc21 [Compound 7925804]	60% and 67%	1.5 and 2	100% and 83%	1.5			2	4		effect on adult H. polygyrus viability [1]: potent effects; # of Worms Affected [1, 7]: 5
CC(C)(C)c1ccc(CCOc2ncnc3ccccc23)cc1 [Fenazaquin, reference compound]									0.5	
COc1cc2c(cc1OC)C(c1ccc(-c3ccc(Cl)c(Cl)c3)o1)=NCC2 [NPD3577]									16	% Activity Complex IV [3]: 81.06 (2.34) %; Percent in vitro activity, Complex IV (single replicate Rep1-Rep4) [3]: 78.287% and 81.122% and 71.227% and 93.621%; Percent in vitro activity, Complex IV (Mean) [3]: 81.064%
COc1cc2c(cc1OC)C(/C=C/c1ccc(N(C)C)cc1)=NCC2 [NPD6303]									32.2	% Activity Complex IV [3]: 83.07 (1.76) %; Percent in vitro activity, Complex IV (single replicate Rep1-Rep4) [3]: 86.689% and 90.588% and 80.321% and 74.685%; Percent in vitro activity, Complex IV (Mean) [3]: 83.071%
COc1cc2c(cc1OC)C(C(C)c1ccc(CC(C)C)cc1)=NCC2 (stereo not shown) [NPD10504]									15.6	% Activity Complex IV [3]: 74.57 (1.35) %; Percent in vitro activity, Complex IV (single replicate Rep1-Rep4) [3]: 71.688% and 71.402% and 72.596% and 82.587%; Percent in vitro activity, Complex IV (Mean) [3]: 74.568%
C=C(C)[C@H]1Cc2c(ccc3c2O[C@@H]2COc4cc(OC)c(OC)cc4[C@@H]2C3=O)O1 [Rotenone, reference compound]									0.8	HEK293 viability [4, 13]: 0.393 and 0.409 and 0.194; HEK293 viability [4, 14]: 0.340 and 0.322; HEK293 viability [4, 15]: 0.488 and 0.455; HEK293 viability [4, 16]: 0.380 and 0.286; HEK293 viability [4, 17]: 0.265; HEK293 viability [4, 18]: 0.242 and 0.200; HEK293 viability [4, 19]: 0.196 and 0.203; % Activity Complex IV [3]: 99.57 (1.12) %; CIV Activity ([3]; Mean): 99.566%; CIV Activity ([3]; single replicate): 94.435% and 102.333% and 104.163% and 97.333%; Percent in vitro activity, Complex IV (single replicate Rep1-Rep4) [3]: 102.333% and 104.163% and 97.333% and 94.435%; Percent in vitro activity, Complex IV (Mean) [3]: 99.566%
Cc1nc2ccccc2n1Cc1ccc(Cl)cc1 [STK697993]	17%	2.5 and 1.5	17% and 100%		17	17	1	1	8.2	# of Worms Affected [1, 5]: 1
CCn1c(C(C)c2ccc(CC(C)C)cc2)nc2ccccc21 (stereo not shown) [STK951902]	67% and 83%	2 and 1 and 1.5	100% and 67%		67	83	4	5		effect on adult H. polygyrus viability [1]: potent effects
CC(C)Cc1ccc(C(C)c2nc3ccccc3n2C(C)C)cc1 (stereo not shown) [STK951903]	67% and 14%	1.5 and 2.5 and 2	100%		67	14	4	1		# of Worms Affected [1, 7]: 6
Cc1cc(O)c2c(c1)O[C@@]1(C)CC[C@H]3C(C)(C)CCC[C@]34CO[C@@H]2[C@H]41 [Siccanin]									6.3	HEK293 viability [4, 13]: 0.916; HEK293 viability [4, 14]: 0.884; HEK293 viability [4, 15]: 0.838 and 0.744; HEK293 viability [4, 16]: 0.943 and 0.986; HEK293 viability [4, 17]: 0.861 and 0.895 and 0.672; HEK293 viability [4, 18]: 0.599 and 0.475 and 0.289; HEK293 viability [4, 19]: 0.058 and 0.057
O=C(NCCc1ccc(Cl)cc1)c1ccccc1C(F)(F)F [Wact-11]										HEK293 viability [4]: 0.997; HEK293 viability ([4]; dose 0.4 µM, Mean of replicates): 0.929; HEK293 viability [4, 13]: 0.886 and 0.902; HEK293 viability ([4]; dose 0.8 µM, Mean of replicates): 0.971; HEK293 viability [4, 14]: 0.916; HEK293 viability ([4]; dose 6.3 µM, Mean of replicates): 0.986; HEK293 viability [4, 16]: 0.982 and 0.975; CC50 ([4]; read-out: HEK293 Cell Viability Assay LC50, 2 days exposure): > 50 µM; % Activity Complex IV [3]: 89.00 (0.63) %; CIV Activity ([3]; Mean): 88.998%; CIV Activity ([3]; single replicate): 91.037% and 86.647% and 91.305% and 87.004%; Percent in vitro activity, Complex IV (single replicate Rep1-Rep4) [3]: 91.037% and 86.647% and 91.305% and 87.004%; Percent in vitro activity, Complex IV (Mean) [3]: 88.998%
